Experimental data published in US8575188B2 (priority 2009, dated 2013).
Where two headings read alike, the source gives them in different places.

Assays:
[1] = tested on: human non small cell lung cancer cell line H460; experiment: Antiproliferation (cytotoxicity) assay, 72 hrs under air, Alamar Blue; assay type: cell-based
[2] = tested on: BCRP, which over expressed the breast cancer resistance protein; experiment: Efflux pump drug resistance, antiproliferation assay, BCRP over expressing line
Experimental: (§1) The compounds were screened for cytotoxicity using human non small cell lung cancer cell line H460. […]
(§2) Cellular drug resistance was determined using the antiproliferation assay described above.

[3] = In vivo pharmacokinetics, oral gavage; conditions: CD-mice, oral gavage
Experimental: The data normalized to a 50 mg/kg dose are shown below (compounds were dosed at either 25 or 50 mg/kg).

[4] = tested on: Messa ovarian carcinoma cell line; experiment: Efflux pump drug resistance, antiproliferation assay, parent line; assay type: cell-based; conditions: Homo sapiens, MES-SA, 72 h, air, 3 days; read-out: Air 3d MESSA prol. IC50
Experimental: […] Cells were treated with test compounds at various concentrations under air for 72 hrs, and then cell viability and proliferation were assessed by Alamar Blue staining.
as §2

[5] = tested on: DX5, which over expresses the MDR 1 efflux pump; experiment: Efflux pump drug resistance, antiproliferation assay, MDR 1 over expressing line; assay type: cell-based; conditions: MDR1, 72 h, air, 3 days; read-out: Air 3d DX5 prol. IC50
Experimental: as §1, §2

[6] = tested on: pcDNA; experiment: Efflux pump drug resistance, antiproliferation assay, parent line; assay type: cell-based; conditions: 72 h, air, 3 days; read-out: Air 3d pcDNA prol. IC50
Experimental: as §1, §2

[7] = tested on: human non small cell lung cancer H-460; experiment: Xenograft model, subcutaneous, tumor growth inhibition and body weight loss
Experimental: The first three models were produced by subcutaneous implantation of the appropriate number of cells into the flank of the animals. When tumor size was approximately 150 mm^3, animals were randomized into groups of 10 mice each for dosing. One arm was dosed with only vehicle and the results used for the efficacy calculations. […] TGI=(1−T/C) %. T/C ratio was calculated as T/C=(Tn−Ti)/(Cn−Ci), where Tn is tumor volume in treatment group on Day n, and Ti is the initial tumor volume in the treatment group. Cn is the tumor volume of the vehicle group on the last day of measurement. Ci is the initial tumor volume in the vehicle control group. Day n is the last measurement taken when all the animals in the vehicle group were not yet euthanized. Animals were euthanized when tumor volumes grew larger than 2000 mm^3.

[8] = Homo sapiens, NCI-H460, H460, inhibition of proliferation, 72 hrs under air, read-out: IC50

Structure (SMILES) | IC50 [1, 8] | further results
CC[C@@]1(O)C(=O)OCc2c1cc1n(c2=O)Cc2cc3ccccc3nc2-1 [Camptothecin, reference compound] | – | IC50 ([1]; H460, inhibition of proliferation, 72 hrs under air, read-out: IC50): 14 nM; ratio BCRP over expressing line versus the parent cell line ([2]; ratio of IC50s, BCRP versus pcDNA): 1.6; half-life [3]: 1.98 h; Cmax ([3]; 5% DMSO, 5% Tween 80 suspension in water, normalized to a 50 mg/kg dose): 374 ng/mL; AUC ([3]; normalized to a 50 mg/kg dose): 58.1 µg·min/mL
CC[C@@]1(O)C(=O)OCc2c1c([N+](=O)[O-])c1n(c2=O)Cc2c-1nc1ccccc1c2CO [TH1333] | > 1000 nM | IC50 [4]: 15000 nM; IC50 [5]: 34000 nM; IC50 [6]: 3900 nM; IC50 ([2]; 72 h, read-out: Air 3d BCRP prol. IC50 nM, air, 3 days): 7800 nM; 3d BCRP/pcDNA ([2]; ratio of IC50s, BCRP over expressing versus parent line, 3 days): 2
CC[C@@]1(O)C(=O)OCc2c1c([N+](=O)[O-])c1n(c2=O)Cc2cc3c([N+](=O)[O-])cccc3nc2-1 [TH1385] | > 1000 nM | –
CC[C@@]1(O)C(=O)OCc2c1c([N+](=O)[O-])c1n(c2=O)Cc2c-1nc1ccccc1c2/C=N/OCCN(C)C [TH1522] | > 1000 nM | –
CC[C@@]1(O)C(=O)OCc2c1c([N+](=O)[O-])c1n(c2=O)Cc2c-1nc1cccc([N+](=O)[O-])c1c2/C=N/OCCN1CCOCC1 [TH1523] | 830 nM | –
CC[C@@]1(O)C(=O)OCc2c1c([N+](=O)[O-])c1n(c2=O)Cc2c-1nc1ccccc1c2/C=N/OCCN1CCCCC1 [TH1524] | > 1000 nM | –
CC[C@@]1(O)C(=O)OCc2c1c([N+](=O)[O-])c1n(c2=O)Cc2c-1nc1cccc([N+](=O)[O-])c1c2/C=N/OCCN1CCCCC1 [TH1525] | > 1000 nM | –
CC[C@@]1(O)C(=O)OCc2c1c([N+](=O)[O-])c1n(c2=O)Cc2c-1nc1ccccc1c2CO[N+](=O)[O-] [TH1598] | – | IC50 ([1]; Homo sapiens, NCI-H460, 72 h): 89 nM
CC[C@@]1(O)C(=O)OCc2c1c(N)c1n(c2=O)Cc2c-1nc1ccccc1c2CO [TH1599] | 4.3 nM | –
CC[C@@]1(O)C(=O)OCc2c1c([N+](=O)[O-])c1n(c2=O)Cc2c-1nc1ccccc1c2CC[Si](C)(C)C [TH1626] | > 1000 nM | –
CC[C@@]1(O)C(=O)OCc2c1c([N+](=O)[O-])c1n(c2=O)Cc2c-1nc1ccccc1c2CC[Si](C)(C)O [TH1627] | > 1000 nM | –
CC[C@@]1(O)C(=O)OCc2c1c(N)c1n(c2=O)Cc2c-1nc1ccccc1c2CC[Si](C)(C)O [TH1628] | 62 nM | –
CC[C@@]1(O)C(=O)OCc2c1c(N)c1n(c2=O)Cc2c-1nc1ccccc1c2CC[Si](C)(C)C [TH1631] | 7.4 nM | –
CC[C@@]1(O)C(=O)OCc2c1c([N+](=O)[O-])c1n(c2=O)Cc2c-1nc1cccc([N+](=O)[O-])c1c2Br [TH1636] | 6200 nM | –
CC[C@@]1(O)C(=O)OCc2c1c(N)c1n(c2=O)Cc2c-1nc1ccccc1c2CC(C)(C)C [TH1643] | 43 nM | –
CC[C@@]1(O)C(=O)OCc2c1c([N+](=O)[O-])c1n(c2=O)Cc2c-1nc1ccccc1c2CC(C)(C)C [TH1644] | 800 nM | –
CCCc1c2c(nc3ccccc13)-c1c([N+](=O)[O-])c3c(c(=O)n1C2)COC(=O)[C@]3(O)CC [TH1650] | 685 nM | TGI (%) ([7]; H460, PO, QD × 5/wk, 2 weeks, 40 mg/Kg): 85%; Max. BWL (%) ([7]; mouse, in vivo, po, 40 mg/kg): 6.7%
CC[C@@]1(O)C(=O)OCc2c1c([N+](=O)[O-])c1n(c2=O)Cc2c-1nc1ccccc1c2C=O [TH1762, 7-formyl-14-nitro camptothecin] | 7200 nM | –
CC[C@@]1(O)C(=O)OCc2c1c([N+](=O)[O-])c1n(c2=O)Cc2c-1nc1ccccc1c2C#N [TH1766] | > 1000 nM | –
CC[C@@]1(O)C(=O)OCc2c1c([N+](=O)[O-])c1n(c2=O)Cc2c-1nc1ccccc1c2/C=N/N1CCOCC1 [TH1767] | 6000 nM | –
CC[C@@]1(O)C(=O)OCc2c1c([N+](=O)[O-])c1n(c2=O)Cc2c-1nc1ccccc1c2/C=N/NCCO [TH1768] | 6600 nM | –
CC[C@@]1(O)C(=O)OCc2c1c(N)c1n(c2=O)Cc2c-1nc1ccccc1c2CN [TH1769] | 330 nM | –
CC[C@@]1(O)C(=O)OCc2c1c([N+](=O)[O-])c1n(c2=O)Cc2c-1nc1ccccc1c2/C=C/N1CCN(C)CC1 [TH1770] | 9100 nM | –
C=CCO/N=C/c1c2c(nc3ccccc13)-c1c([N+](=O)[O-])c3c(c(=O)n1C2)COC(=O)[C@]3(O)CC [TH1771] | > 10000 nM | –
CC[C@@]1(O)C(=O)OCc2c1c(N)c1n(c2=O)Cc2c-1nc1ccccc1c2/C=N/N1CCN(C)CC1 [TH1775] | 26 nM | –
CC[C@@]1(O)C(=O)OCc2c1c([N+](=O)[O-])c1n(c2=O)Cc2c-1nc1ccccc1c2/C=N/OCC1CO1 (some centres unmarked) [TH1776] | 3200 nM | –
CC[C@@]1(O)C(=O)OCc2c1c(N)c1n(c2=O)Cc2c-1nc1ccccc1c2/C=N/N1CCOCC1 [TH1777] | 16 nM | –

Structure (SMILES) | IC50 [1, 8] | further results
CC[C@@]1(O)C(=O)OCc2c1c(N)c1n(c2=O)Cc2c-1nc1ccccc1c2/C=N/NCCO [TH1778] | 270 nM | –
CC[C@@]1(O)C(=O)OCc2c1c([N+](=O)[O-])c1n(c2=O)Cc2c-1nc1ccccc1c2/C=N/N(CCO)C(C)=O [TH1780] | 28000 nM | –
CCOC(=O)/C=C/c1c2c(nc3ccccc13)-c1c([N+](=O)[O-])c3c(c(=O)n1C2)COC(=O)[C@]3(O)CC [TH1781] | 28000 nM | –
CC[C@@]1(O)C(=O)OCc2c1c(N)c1n(c2=O)Cc2c-1nc1ccccc1c2/C=N/N(CCO)C(C)=O [TH1783] | 460 nM | –
CC[C@@]1(O)C(=O)OCc2c1c([N+](=O)[O-])c1n(c2=O)Cc2c-1nc1ccccc1c2/C=C/C(C)=O [TH1784] | 4900 nM | –
CC[C@@]1(O)C(=O)OCc2c1c(N)c1n(c2=O)Cc2c-1nc1ccccc1c2C(OC)OC [TH1785] | 39 nM | –
CC[C@@]1(O)C(=O)OCc2c1c([N+](=O)[O-])c1n(c2=O)Cc2c-1nc1ccccc1c2/C=C/C(=O)OC(C)(C)C [TH1786] | 21000 nM | –
CCOC(=O)CCc1c2c(nc3ccccc13)-c1c(N)c3c(c(=O)n1C2)COC(=O)[C@]3(O)CC [TH1787] | 12 nM | –
CCOC(=O)/C=C/c1c2c(nc3ccccc13)-c1c(N)c3c(c(=O)n1C2)COC(=O)[C@]3(O)CC [TH1789] | 31 nM | –
CC[C@@]1(O)C(=O)OCc2c1c(N)c1n(c2=O)Cc2c-1nc1ccccc1c2CCC(=O)OC(C)(C)C [TH1790] | 46 nM | –
CC[C@@]1(O)C(=O)OCc2c1c([N+](=O)[O-])c1n(c2=O)Cc2c-1nc1ccccc1c2/C=N/N(CCO)C(=O)C(C)(C)C [TH1791] | 4000 nM | –
CC[C@@]1(O)C(=O)OCc2c1c(N)c1n(c2=O)Cc2c-1nc1ccccc1c2/C=N/N(CCO)C(=O)C(C)(C)C [TH1793] | 19 nM | –
CC[C@@]1(O)C(=O)OCc2c1c([N+](=O)[O-])c1n(c2=O)Cc2c-1nc1ccccc1c2/C=N/N(CCO)C(=O)C(C)C [TH1794] | 2300 nM | –
CC[C@@]1(O)C(=O)OCc2c1c(N)c1n(c2=O)Cc2c-1nc1ccccc1c2/C=N/N(CCO)C(=O)C(C)C [TH1796] | 12 nM | –
CC[C@@]1(O)C(=O)OCc2c1c([N+](=O)[O-])c1n(c2=O)Cc2c-1nc1ccccc1c2/C=N/N(CCO)C(=O)c1ccccc1 [TH1797] | 40000 nM | –
CC[C@@]1(O)C(=O)OCc2c1c([N+](=O)[O-])c1n(c2=O)Cc2c-1nc1ccccc1c2/C=N/N(CCOS(C)(=O)=O)S(C)(=O)=O [TH1798] | 2500 nM | –
CC[C@@]1(O)C(=O)OCc2c1c(N)c1n(c2=O)Cc2c-1nc1ccccc1c2/C=N/N(CCOS(C)(=O)=O)S(C)(=O)=O [TH1799] | 8.1 nM | –
CC[C@@]1(O)C(=O)OCc2c1c(N)c1n(c2=O)Cc2c-1nc1ccccc1c2/C=N/N(CCO)C(=O)c1ccccc1 [TH1800] | 220 nM | –
CC[C@@]1(O)C(=O)OCc2c1c(N)c1n(c2=O)Cc2c-1nc1ccccc1c2C#N [TH1801] | 23 nM | –
CC[C@@]1(O)C(=O)OCc2c1c([N+](=O)[O-])c1n(c2=O)Cc2c-1nc1ccccc1c2/C=N/c1ccccc1O [TH1803] | 3600 nM | –
CC[C@@]1(O)C(=O)OCc2c1c([N+](=O)[O-])c1n(c2=O)Cc2c-1nc1ccccc1c2/C=N/c1ccc(C(C)(C)C)cc1 [TH1804] | > 50000 nM | –
CC[C@@]1(O)C(=O)OCc2c1c([N+](=O)[O-])c1n(c2=O)Cc2c-1nc1ccccc1c2/C=N/c1c(F)c(F)c(O)c(F)c1F [TH1805] | 49000 nM | –
CC[C@@]1(O)C(=O)OCc2c1c(N)c1n(c2=O)Cc2c-1nc1ccccc1c2/C=N/c1ccc(C(C)(C)C)cc1 [TH1809] | 1400 nM | –
CC[C@@]1(O)C(=O)OCc2c1c(N)c1n(c2=O)Cc2c-1nc1ccccc1c2/C=C/C(=O)OC(C)(C)C [TH1811] | 14 nM | –
CC[C@@]1(O)C(=O)OCc2c1c([N+](=O)[O-])c1n(c2=O)Cc2c-1nc1ccccc1c2/C=N/N1CCOCOC1 [TH1812] | 2800 nM | –
CC[C@@]1(O)C(=O)OCc2c1c(N)c1n(c2=O)Cc2c-1nc1ccccc1c2CNCC(C)(C)C [TH1814] | 15 nM | –
CC[C@@]1(O)C(=O)OCc2c1c(N)c1n(c2=O)Cc2c-1nc1ccccc1c2/C=N/N1CCOCOC1 [TH1816] | 23 nM | –
